Measurements reported in patent US20230085307A1, “PYRIDAZINONE COMPOUND AND HERBICIDE” (NISSAN CHEMICAL CORPORATION, priority 2019, published 2023).

Columns and labels:
lambsquarters [1] = assay: Test Example 4: herbicidal effect by soil treatment (Table 19, symbol O); type: in vivo, lambsquarters (Chenopodium album); details: 320 g/ha
In short: (§1)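 Emulsion of test compound, water-diluted to predetermined amount, sprayed on soil after sowing (seed depth ~1.5 cm, sterilized diluvial soil). Greenhouse, 25–30° C. Effect graded at three weeks post-spray.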

false cleavers = assay: Test Example 5: herbicidal effect by foliage application, plastic box (Table 20, symbol Q); type: in vivo, false cleavers (Galium spurium); details: foliage application, 320 g/ha, 3 weeks after application
In short: (§2)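 Post-emergence foliar test in sterilized diluvial soil. Compound applied as water-diluted emulsion at a predetermined rate to 14-day-old plants; evaluation at three weeks.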

green foxtail [2] = assay: Test Example 4: herbicidal effect by soil treatment (Table 19, symbol G); type: in vivo, green foxtail (Setaria viridis); details: 320 g/ha
In short: as §1

redroot pigweed = assay: Test Example 4: herbicidal effect by soil treatment (Table 19, symbol N); type: in vivo, redroot pigweed (Amaranthus retroflexus); details: 320 g/ha
In short: as §1

southern crabgrass [3] = assay: Test Example 4: herbicidal effect by soil treatment (Table 19, symbol F); type: in vivo, southern crabgrass (Digitaria ciliaris); details: 320 g/ha
In short: as §1

chickweed = assay: Test Example 4: herbicidal effect by soil treatment (Table 19, symbol P); type: in vivo, common chickweed (Stellaria media); details: 320 g/ha
In short: as §1

persian speedwell [4] = assay: Test Example 5: herbicidal effect by foliage application, plastic box (Table 20, symbol R); type: in vivo, Persian speedwell (Veronica persica); details: foliage application, 320 g/ha, 3 weeks after application
In short: as §2

green foxtail [5] = assay: Test Example 5: herbicidal effect by foliage application, plastic box (Table 20, symbol G); type: in vivo, green foxtail (Setaria viridis); details: foliage application, 320 g/ha, 3 weeks after application
In short: as §2

windgrass [6] = assay: Test Example 4: herbicidal effect by soil treatment (Table 19, symbol L); type: in vivo, windgrass (Apera spica-venti); details: 320 g/ha
In short: as §1

late watergrass = assay: Test Example 2: herbicidal activity, application during weed generation under submerged conditions (Table 17, symbol A); type: in vivo, late watergrass (Echinochloa oryzicola); details: AAH 320 g/ha; application during weed generation, submerged conditions
In short: (§3)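 In this pot test, flooded alluvial soil (water depth 4 cm) holds all three species sown as a mixture. Once seedlings have one to two leaves, the compound's emulsion, thinned with water to the intended dose, is poured on the water; grading follows after three weeks on the earlier criteria.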

barnyard grass [7] = assay: Test Example 4: herbicidal effect by soil treatment (Table 19, symbol H); type: in vivo, barnyard grass (Echinochloa crus-galli); details: 320 g/ha
In short: as §1

wild oat [8] = assay: Test Example 5: herbicidal effect by foliage application, plastic box (Table 20, symbol I); type: in vivo, wild oat (Avena fatua); details: foliage application, 320 g/ha, 3 weeks after application
In short: as §2

wild oat [9] = assay: Test Example 4: herbicidal effect by soil treatment (Table 19, symbol I); type: in vivo, wild oat (Avena fatua); details: 320 g/ha
In short: as §1

rice flat sedge = assay: Test Example 3: herbicidal effect by foliage application, Wagner pot (Table 18, symbol E); type: in vivo, rice flat sedge (Cyperus iria); details: 320 g/ha
In short: (§4)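 Plants were sown in alluvial soil held under 0.1–0.5 cm standing water and grown 14 days in a greenhouse at 25–30 °C. An emulsifiable formulation, water-diluted to the set dose, was then sprayed onto the foliage, and effects were scored three weeks later using previously defined criteria.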

Italian ryegrass [10] = assay: Test Example 5: herbicidal effect by foliage application, plastic box (Table 20, symbol K); type: in vivo, Italian ryegrass (Lolium multiflorum); details: foliage application, 320 g/ha, 3 weeks after application
In short: as §2

lambsquarters [11] = assay: Test Example 5: herbicidal effect by foliage application, plastic box (Table 20, symbol O); type: in vivo, lambsquarters (Chenopodium album); details: foliage application, 320 g/ha, 3 weeks after application
In short: as §2

persian speedwell [12] = assay: Test Example 4: herbicidal effect by soil treatment (Table 19, symbol R); type: in vivo, Persian speedwell (Veronica persica); details: 320 g/ha
In short: as §1

barnyard grass [13] = assay: Test Example 5: herbicidal effect by foliage application, plastic box (Table 20, symbol H); type: in vivo, barnyard grass (Echinochloa crus-galli); details: foliage application, 320 g/ha, 3 weeks after application
In short: as §2

southern crabgrass [14] = assay: Test Example 5: herbicidal effect by foliage application, plastic box (Table 20, symbol F); type: in vivo, southern crabgrass (Digitaria ciliaris); details: foliage application, 320 g/ha, 3 weeks after application
In short: as §2

barnyard grass [15] = assay: Test Example 3: herbicidal effect by foliage application, Wagner pot (Table 18, symbol H); type: in vivo, barnyard grass (Echinochloa crus-galli); details: 320 g/ha
In short: as §4

oval-leafed pondweed = assay: Test Example 2: herbicidal activity, application during weed generation under submerged conditions (Table 17, symbol C); type: in vivo, oval-leafed pondweed (Monochoria vaginalis); details: AAH 320 g/ha; application during weed generation, submerged conditions
In short: as §3

blackgrass [16] = assay: Test Example 4: herbicidal effect by soil treatment (Table 19, symbol J); type: in vivo, blackgrass (Alopecurus myosuroides); details: 320 g/ha
In short: as §1

Chinese sprangletop = assay: Test Example 3: herbicidal effect by foliage application, Wagner pot (Table 18, symbol D); type: in vivo, chinese sprangletop (Leptochloa chinensis); details: 320 g/ha
In short: as §4

velvetleaf [17] = assay: Test Example 4: herbicidal effect by soil treatment (Table 19, symbol M); type: in vivo, velvetleaf (Abutilon theophrasti); details: 320 g/ha
In short: as §1

Japanese bulrush = assay: Test Example 2: herbicidal activity, application during weed generation under submerged conditions (Table 17, symbol B); type: in vivo, Japanese bulrush (Schoenoplectus juncoides); details: AAH 320 g/ha; application during weed generation, submerged conditions
In short: as §3

windgrass [18] = assay: Test Example 5: herbicidal effect by foliage application, plastic box (Table 20, symbol L); type: in vivo, windgrass (Apera spica-venti); details: foliage application, 320 g/ha, 3 weeks after application
In short: as §2

velvetleaf [19] = assay: Test Example 5: herbicidal effect by foliage application, plastic box (Table 20, symbol M); type: in vivo, velvetleaf (Abutilon theophrasti); details: foliage application, 320 g/ha, 3 weeks after application
In short: as §2

blackgrass [20] = assay: Test Example 5: herbicidal effect by foliage application, plastic box (Table 20, symbol J); type: in vivo, blackgrass (Alopecurus myosuroides); details: foliage application, 320 g/ha, 3 weeks after application
In short: as §2

Italian ryegrass [21] = assay: Test Example 4: herbicidal effect by soil treatment (Table 19, symbol K); type: in vivo, Italian ryegrass (Lolium multiflorum); details: 320 g/ha
In short: as §1

## CCOc1ccccc1-c1sc2ccc(F)cc2c1-c1c(O)c(C)nn(C)c1=O [2-028]
Lambsquarters [1]
  herbicidal effect rating, O: lambsquarters: 3 (Herbicidal rate of 40% or more and less than 70%)
False cleavers
  effect on false cleavers (Q): 5 (Herbicidal rate of 90% or more (almost completely withered))
Green foxtail [2]
  herbicidal effect rating, G: green foxtail: 2 (Herbicidal rate of 20% or more and less than 40%)
Redroot pigweed
  herbicidal effect rating, N: redroot pigweed: 5 (Herbicidal rate of 90% or more (almost completely withered))
Southern crabgrass [3]
  herbicidal effect rating, F: southern crabgrass: 3 (Herbicidal rate of 40% or more and less than 70%)
chickweed
  herbicidal effect rating, P: chickweed: 4 (Herbicidal rate of 70% or more and less than 90%)
Persian speedwell [4]
  effect on persian speedwell (R): 5 (Herbicidal rate of 90% or more (almost completely withered))
Green foxtail [5]
  effect on green foxtail (G): 4 (Herbicidal rate of 70% or more and less than 90%)
Windgrass [6]
  herbicidal effect rating, L: windgrass: 0 (Herbicidal rate of 5% or less (almost no effect))
Late watergrass
  herbicidal effect rating, A: late watergrass: 3 (Herbicidal rate of 40% or more and less than 70%)
Barnyard grass [7]
  herbicidal effect rating, H: barnyard grass: 3 (Herbicidal rate of 40% or more and less than 70%)
Wild oat [8]
  effect on wild oat (I): 3 (Herbicidal rate of 40% or more and less than 70%)
Wild oat [9]
  herbicidal effect rating, I: wild oat: 0 (Herbicidal rate of 5% or less (almost no effect))
Rice flat sedge
  herbicidal effect on E (rice flat sedge), rating 0-5: 5 (Herbicidal rate of 90% or more (almost completely withered))
Italian ryegrass [10]
  effect on Italian ryegrass (K): 3 (Herbicidal rate of 40% or more and less than 70%)
Lambsquarters [11]
  effect on lambsquarters (O): 3 (Herbicidal rate of 40% or more and less than 70%)
Persian speedwell [12]
  herbicidal effect rating, R: persian speedwell: 5 (Herbicidal rate of 90% or more (almost completely withered))
Barnyard grass [13]
  effect on barnyard grass (H): 4 (Herbicidal rate of 70% or more and less than 90%)
Southern crabgrass [14]
  effect on southern crabgrass (F): 3 (Herbicidal rate of 40% or more and less than 70%)
Barnyard grass [15]
  herbicidal effect on H (barnyard grass), rating 0-5: 4 (Herbicidal rate of 70% or more and less than 90%)
oval-leafed pondweed
  herbicidal effect rating, C: oval-leafed pondweed: 3 (Herbicidal rate of 40% or more and less than 70%)
Blackgrass [16]
  herbicidal effect rating, J: blackgrass: 0 (Herbicidal rate of 5% or less (almost no effect))
Chinese sprangletop
  herbicidal effect on D (Chinese sprangletop), rating 0-5: 3 (Herbicidal rate of 40% or more and less than 70%)
Velvetleaf [17]
  herbicidal effect rating, M: velvetleaf: 3 (Herbicidal rate of 40% or more and less than 70%)
Japanese bulrush
  herbicidal effect rating, B: Japanese bulrush: 1 (Herbicidal rate of 5% or more and less than 20%)
Windgrass [18]
  effect on windgrass (L): 4 (Herbicidal rate of 70% or more and less than 90%)
Velvetleaf [19]
  effect on velvetleaf (M): 4 (Herbicidal rate of 70% or more and less than 90%)
Blackgrass [20]
  effect on blackgrass (J): 4 (Herbicidal rate of 70% or more and less than 90%)
Italian ryegrass [21]
  herbicidal effect rating, K: Italian ryegrass: 0 (Herbicidal rate of 5% or less (almost no effect))
